For twelve compounds, IC50 results are on record in patent publication US20240116985A1, “STAPLED PEPTIDES AND METHODS THEREOF” (priority 2020, published 2024).

The target of assay [1] is T1, beta-catenin/TCF4 engagement (Homo sapiens, UniProt P35222).
T1 construct: expressed in transfected cells; host or cells: HEK293
T1 sequence (P35222 1-781): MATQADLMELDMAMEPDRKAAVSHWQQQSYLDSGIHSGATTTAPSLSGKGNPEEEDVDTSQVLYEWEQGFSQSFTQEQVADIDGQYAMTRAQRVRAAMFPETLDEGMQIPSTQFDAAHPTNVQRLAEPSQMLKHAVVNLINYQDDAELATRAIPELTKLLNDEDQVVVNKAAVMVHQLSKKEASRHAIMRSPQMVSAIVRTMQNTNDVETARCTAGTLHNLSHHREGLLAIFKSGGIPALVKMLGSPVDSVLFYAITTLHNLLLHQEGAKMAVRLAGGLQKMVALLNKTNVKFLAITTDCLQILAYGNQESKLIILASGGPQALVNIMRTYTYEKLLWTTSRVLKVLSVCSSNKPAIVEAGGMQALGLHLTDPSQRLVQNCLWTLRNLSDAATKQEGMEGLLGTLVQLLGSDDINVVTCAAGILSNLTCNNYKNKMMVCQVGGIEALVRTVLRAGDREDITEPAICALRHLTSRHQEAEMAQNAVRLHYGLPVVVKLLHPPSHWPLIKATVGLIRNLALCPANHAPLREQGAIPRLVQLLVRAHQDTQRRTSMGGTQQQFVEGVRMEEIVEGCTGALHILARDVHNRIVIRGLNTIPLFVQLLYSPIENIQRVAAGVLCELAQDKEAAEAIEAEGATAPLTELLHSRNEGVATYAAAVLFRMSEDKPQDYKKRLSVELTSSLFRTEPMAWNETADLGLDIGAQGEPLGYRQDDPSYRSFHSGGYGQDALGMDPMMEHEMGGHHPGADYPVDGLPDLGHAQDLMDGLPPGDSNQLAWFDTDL
The assay can be described thus: Nano-BRET target engagement assay (B-cat-Halo & TCF4-Luc in HEK293 cells). The following applies: absolute IC50; read-out: NanoBRET Abs IC50. Format: cell-based.

Assay [2] addresses T2, full-length beta-Catenin (Uniprot ID P35222) (Homo sapiens, UniProt P35222).
T2 construct: 10 nM full-length beta-Catenin (Uniprot ID P35222)
T2 sequence (P35222 1-781): T1 sequence (P35222 1-781)
Put plainly: Fluorescence polarization IC50 (beta-catenin / 5FAM-TCF4 10-53 competition). Type of assay: binding. The following applies: fluorescence polarization; read-out: beta-Catenin FP IC50.

Regarding `COCCOCCOCCOCCC(=O)NCCCC[C@@H]1NC(=O)[C@H](CCC(N)=O)NC(=O)[C@H](CC(=O)O)NC(=O)C2(CCCC=CCCCOC(=O)N3CC[C@@](C(=O)N[C@@H](Cc4ccccc4)C(=O)N[C@@H](Cc4csc5ccccc45)C(=O)N[C@@H](CC(=O)N4CCOCC4)C(N)=O)(C3)NC(=O)[C@H](CC(C)C)NC(=O)[C@H](Cc3ccccc3)NC(=O)[C@H](C)NC1=O)CCCC=CC[C@]1(CCCN1C(C)=O)C(=O)N[C@@H](CC(N)=O)C(=O)N[C@@H](CC1CCCCC1)C(=O)N2` (stereo partly drawn) [I-2526, Ac-PL3-Asn-Cha-B5-Asp-Gln-[mPEG4]Lys-Ala-Phe-Leu-PyrS2-Phe-BztA-MorphAsn-NH2], the IC50 – broadly, the concentration at which inhibition is half-maximal – in assay [1] was > 20 µM; in assay [2], 224 nM.

As to `CC(=O)N1CCC[C@]12CC=CCCCC1(CCCC=CCCCOC(=O)N3CC[C@@](C(=O)N[C@@H](Cc4ccccc4)C(=O)N[C@@H](Cc4csc5ccccc45)C(=O)N[C@@H](CC(=O)N4CCOCC4)C(N)=O)(C3)NC(=O)[C@H](CC(C)C)NC(=O)[C@H](Cc3ccccc3)NC(=O)[C@H](C)NC(=O)[C@H](CCCCNC(=O)CN3CCOCC3)NC(=O)[C@H](CCC(N)=O)NC(=O)[C@H](CC(=O)O)NC1=O)NC(=O)[C@H](CC1CCCCC1)NC(=O)[C@H](CC(N)=O)NC2=O` (stereo partly drawn) [I-2527, Ac-PL3-Asn-Cha-B5-Asp-Gln-[MorphAc]Lys-Ala-Phe-Leu-PyrS2-Phe-BztA-MorphAsn-NH2], the IC50 in assay [1] was > 20 µM; in assay [2], 263 nM.

As to `CC(=O)N1CCC[C@]12CC=CCCCC1(CCCC=CCCCOC(=O)N3CC[C@@](C(=O)N[C@@H](Cc4ccccc4C(F)(F)F)C(=O)N[C@@H](Cc4csc5ccccc45)C(=O)N[C@@H](CCC(=O)N(C)C)C(N)=O)(C3)NC(=O)[C@H](Cc3ccccc3)NC(=O)[C@H](Cc3ccccc3)NC(=O)[C@H](C)NC(=O)[C@H](C)NC(=O)[C@H](Cc3cccc(C(=O)O)c3)NC(=O)[C@H](CC(=O)O)NC1=O)NC(=O)[C@H](CC(C)(C)C)NC(=O)[C@H](CC(=O)O)NC2=O` (stereo partly drawn) [I-2534, Ac-PL3-Asp-Npg-B5-Asp-3COOHF-Ala-Ala-Phe-Phe-PyrS2-2F3MeF-BztA-Me2Gln-NH2], the IC50 in assay [1] is 4.4 µM; in assay [2] it was 21 nM.

In the case of `CC(=O)N1CCC[C@]12CC=CCCCC1(CCCC=CCCCOC(=O)N3CC[C@@](C(=O)N[C@@H](Cc4ccccc4C(F)(F)F)C(=O)N[C@@H](Cc4csc5ccccc45)C(=O)N[C@@H](CCC(=O)N(C)C)C(N)=O)(C3)NC(=O)[C@H](CCC(=O)N(C)C)NC(=O)[C@H](Cc3ccccc3)NC(=O)[C@H](C)NC(=O)[C@H](C)NC(=O)[C@H](Cc3cccc(C(=O)O)c3)NC(=O)[C@H](CC(=O)O)NC1=O)NC(=O)[C@H](CC(C)(C)C)NC(=O)[C@H](CC(=O)O)NC2=O` (stereo partly drawn) [I-2535, Ac-PL3-Asp-Npg-B5-Asp-3COOHF-Ala-Ala-Phe-Me2Gln-PyrS2-2F3MeF-BztA-Me2Gln-NH2], the IC50 came to 3.7 µM in assay [1] and 11 nM in assay [2].

As to `CC(=O)N1CCC[C@]12CC=CCCCC1(CCCC=CCCCOC(=O)N3CC[C@@](C(=O)N[C@@H](Cc4ccccc4C(F)(F)F)C(=O)N[C@@H](Cc4csc5ccccc45)C(=O)N[C@@H](CCC(=O)N(C)C)C(N)=O)(C3)NC(=O)[C@H](CCC(=O)N(C)C)NC(=O)[C@H](Cc3ccccc3)NC(=O)[C@H](C)NC(=O)[C@H](C)NC(=O)[C@H](Cc3cccc(C(=O)O)c3)NC(=O)[C@H](CC(=O)O)NC1=O)NC(=O)[C@H](CC(C)(C)C)NC(=O)[C@H](CC(=O)O)NC2=O` (stereo partly drawn) [I-2536, Ac-PL3-Asp-Npg-B5-Asp-3COOHF-Ala-Ala-Phe-Me2Gln-PyrS2-2F3MeF-BztA-Me2Gln-NH2], the IC50 in assay [1] turned out to be 4.5 µM; in assay [2], 13 nM.

Take `CC(=O)N1CCC[C@]12CC=CCCCC1(CCCC=CCCCOC(=O)N3CC[C@@](C(=O)N[C@@H](Cc4ccccc4C(F)(F)F)C(=O)N[C@@H](Cc4csc5ccccc45)C(=O)N[C@@H](CCC(=O)N(C)C)C(N)=O)(C3)NC(=O)[C@H](CCC(=O)N3CCOCC3)NC(=O)[C@H](Cc3ccccc3)NC(=O)[C@H](C)NC(=O)[C@H](C)NC(=O)[C@H](Cc3cccc(C(=O)O)c3)NC(=O)[C@H](CC(=O)O)NC1=O)NC(=O)[C@H](CC(C)(C)C)NC(=O)[C@H](CC(=O)O)NC2=O` (stereo partly drawn) [I-2537, Ac-PL3-Asp-Npg-B5-Asp-3COOHF-Ala-Ala-Phe-MorphGln-PyrS2-2F3MeF-BztA-Me2Gln-NH2]: the IC50 in assay [1] is 2.9 µM; in assay [2], 11 nM.

`CC(=O)N1CCC[C@]12CC=CCCCC1(CCCC=CCCCOC(=O)N3CC[C@@](C(=O)N[C@@H](Cc4ccccc4C(F)(F)F)C(=O)N[C@@H](Cc4csc5ccccc45)C(=O)N[C@@H](CCC(=O)N(C)C)C(N)=O)(C3)NC(=O)[C@H](CCC(=O)N3CCOCC3)NC(=O)[C@H](Cc3ccccc3)NC(=O)[C@H](C)NC(=O)[C@H](C)NC(=O)[C@H](Cc3cccc(C(=O)O)c3)NC(=O)[C@H](CC(=O)O)NC1=O)NC(=O)[C@H](CC(C)(C)C)NC(=O)[C@H](CC(=O)O)NC2=O` (stereo partly drawn) [I-2538, Ac-PL3-Asp-Npg-B5-Asp-3COOHF-Ala-Ala-Phe-MorphGln-PyrS2-2F3MeF-BztA-Me2Gln-NH2]: the half-maximal inhibitory concentration (IC50) in assay [1] is 3.5 µM; in assay [2], 14 nM.

As to `CC(=O)NCCCC[C@@H]1NC(=O)[C@H](Cc2ccccc2)NC(=O)[C@H](C)NC(=O)[C@H](C)NC(=O)[C@H](Cc2cccc(C(=O)O)c2)NC(=O)[C@H](CC(=O)O)NC(=O)C2(CCCC=CCCCOC(=O)N3CC[C@@](C(=O)N[C@@H](Cc4ccccc4C(F)(F)F)C(=O)N[C@@H](Cc4csc5ccccc45)C(=O)N[C@@H](CCC(=O)N(C)C)C(N)=O)(C3)NC1=O)CCCC=CC[C@]1(CCCN1C(C)=O)C(=O)N[C@@H](CC(=O)O)C(=O)N[C@@H](CC(C)(C)C)C(=O)N2` (stereo partly drawn) [I-2539, Ac-PL3-Asp-Npg-B5-Asp-3COOHF-Ala-Ala-Phe-AcLys-PyrS2-2F3MeF-BztA-Me2Gln-NH2], the results for the IC50 in assay [1] and in assay [2] were 3.6 µM and 11 nM, respectively.

Turning to `CC(=O)NCCCC[C@@H]1NC(=O)[C@H](Cc2ccccc2)NC(=O)[C@H](C)NC(=O)[C@H](C)NC(=O)[C@H](Cc2cccc(C(=O)O)c2)NC(=O)[C@H](CC(=O)O)NC(=O)C2(CCCC=CCCCOC(=O)N3CC[C@@](C(=O)N[C@@H](Cc4ccccc4C(F)(F)F)C(=O)N[C@@H](Cc4csc5ccccc45)C(=O)N[C@@H](CCC(=O)N(C)C)C(N)=O)(C3)NC1=O)CCCC=CC[C@]1(CCCN1C(C)=O)C(=O)N[C@@H](CC(=O)O)C(=O)N[C@@H](CC(C)(C)C)C(=O)N2` (stereo partly drawn) [I-2540, Ac-PL3-Asp-Npg-B5-Asp-3COOHF-Ala-Ala-Phe-AcLys-PyrS2-2F3MeF-BztA-Me2Gln-NH2], the values for the IC50 in assay [1] and in assay [2] were 3.5 µM and 14 nM, respectively.

Regarding `CC(=O)N1CCC[C@]12CC=CCCCC1(CCCC=CCCCOC(=O)N3CC[C@@](C(=O)N[C@@H](Cc4ccccc4C(F)(F)F)C(=O)N[C@@H](Cc4csc5ccccc45)C(=O)N[C@@H](CCC(=O)N4CCOCC4)C(N)=O)(C3)NC(=O)[C@H](Cc3ccccc3)NC(=O)[C@H](Cc3ccccc3)NC(=O)[C@H](C)NC(=O)[C@H](C)NC(=O)[C@H](Cc3cccc(C(=O)O)c3)NC(=O)[C@H](CC(=O)O)NC1=O)NC(=O)[C@H](CC(C)(C)C)NC(=O)[C@H](CC(=O)O)NC2=O` (stereo partly drawn) [I-2543, Ac-PL3-Asp-Npg-B5-Asp-3COOHF-Ala-Ala-Phe-Phe-PyrS2-2F3MeF-BztA-MorphGln-NH2], the results for the IC50 in assay [1] and in assay [2] were 7.3 µM and 37 nM, respectively.

`CC(=O)N1CCC[C@]12CC=CCCCC1(CCCC=CCCCOC(=O)N3CC[C@@](C(=O)N[C@@H](Cc4ccccc4C(F)(F)F)C(=O)N[C@@H](Cc4csc5ccccc45)C(=O)N[C@@H](CCC(=O)N4CCOCC4)C(N)=O)(C3)NC(=O)[C@H](CCC(=O)N(C)C)NC(=O)[C@H](Cc3ccccc3)NC(=O)[C@H](C)NC(=O)[C@H](C)NC(=O)[C@H](Cc3cccc(C(=O)O)c3)NC(=O)[C@H](CC(=O)O)NC1=O)NC(=O)[C@H](CC(C)(C)C)NC(=O)[C@H](CC(=O)O)NC2=O` (stereo partly drawn) [I-2544, Ac-PL3-Asp-Npg-B5-Asp-3COOHF-Ala-Ala-Phe-Me2Gln-PyrS2-2F3MeF-BztA-MorphGln-NH2]: the values for the concentration for half-maximal inhibition (IC50) in assay [1] and in assay [2] were 4.1 µM and 11 nM, respectively.

Take `CC(=O)N1CCC[C@]12CC=CCCCC1(CCCC=CCCCOC(=O)N3CC[C@@](C(=O)N[C@@H](Cc4ccccc4C(F)(F)F)C(=O)N[C@@H](Cc4csc5ccccc45)C(=O)N[C@@H](CCC(=O)N4CCOCC4)C(N)=O)(C3)NC(=O)[C@H](CCC(=O)N(C)C)NC(=O)[C@H](Cc3ccccc3)NC(=O)[C@H](C)NC(=O)[C@H](C)NC(=O)[C@H](Cc3cccc(C(=O)O)c3)NC(=O)[C@H](CC(=O)O)NC1=O)NC(=O)[C@H](CC(C)(C)C)NC(=O)[C@H](CC(=O)O)NC2=O` (stereo partly drawn) [I-2545, Ac-PL3-Asp-Npg-B5-Asp-3COOHF-Ala-Ala-Phe-Me2Gln-PyrS2-2F3MeF-BztA-MorphGln-NH2]: the IC50 in assay [1] turned out to be 4 µM; in assay [2] it was 16 nM.
